Consider one compound from ChEMBL document CHEMBL3639125, “1,4-oxazepines as BACE1 and/or BACE2 inhibitors” (2014).

For assay [1], the target named is Beta-secretase 1 (Homo sapiens, UniProt P56817). Put plainly: Immunofluorescence Resonance Energy Transfer (FRET) Assay: The FRET assay was performed essentially as described in Gruninger-Leitch et al., Journal of Biological Chemistry (2002) 277(7) 4687-93 (Substrate and inhibitor profile of BACE (beta-secretase) and comparison with other mammalian aspartic proteases). In summary, a peptide is designed that is cleaved by the protease. The peptide is labelled with dabcyl at the N terminus and Lucifer Yellow at the C-terminus, such that for an intact peptide the Lucifer Yellow fluorescence is quenched by the dabcyl. When the peptide is cut by BACE2, the quenching is removed and a fluorescent signal is generated. The assay was performed as described in Grueninger et al. 2002 at pH 4.5 using a substrate concentration of 5 μM. A FRET peptide based on the TMEM27 sequence was devised. dabcyl-QTLEFLKIPS-LucY (SEQ ID NO: 1). […] Conversely, BACE1 had insignificant activity against this peptide.

In assay [2] the target is T1, Beta-secretase 2 (Homo sapiens, UniProt Q9Y5Z0).
T1 sequence (Q9Y5Z0 whole entry): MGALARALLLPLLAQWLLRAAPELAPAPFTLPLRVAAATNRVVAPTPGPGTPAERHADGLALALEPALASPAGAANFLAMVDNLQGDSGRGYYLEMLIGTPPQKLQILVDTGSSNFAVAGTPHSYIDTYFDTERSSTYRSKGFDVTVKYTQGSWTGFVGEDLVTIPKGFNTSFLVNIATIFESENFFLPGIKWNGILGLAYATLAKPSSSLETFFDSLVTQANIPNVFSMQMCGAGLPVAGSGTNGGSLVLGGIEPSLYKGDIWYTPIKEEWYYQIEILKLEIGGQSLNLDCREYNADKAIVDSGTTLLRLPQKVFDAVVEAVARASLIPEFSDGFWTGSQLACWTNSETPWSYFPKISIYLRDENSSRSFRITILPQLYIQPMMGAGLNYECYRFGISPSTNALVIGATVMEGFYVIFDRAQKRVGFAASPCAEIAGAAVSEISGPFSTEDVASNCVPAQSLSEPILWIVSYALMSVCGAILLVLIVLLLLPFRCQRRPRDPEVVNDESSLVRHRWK
Kind of assay: In summary, a peptide is designed that is cleaved by the protease. The peptide is labelled with dabcyl at the N terminus and Lucifer Yellow at the C-terminus, such that for an intact peptide the Lucifer Yellow fluorescence is quenched by the dabcyl. When the peptide is cut by BACE2, the quenching is removed and a fluorescent signal is generated.

Structures are written as SMILES.

Chain of Beta-secretase 1 (P56817 whole entry): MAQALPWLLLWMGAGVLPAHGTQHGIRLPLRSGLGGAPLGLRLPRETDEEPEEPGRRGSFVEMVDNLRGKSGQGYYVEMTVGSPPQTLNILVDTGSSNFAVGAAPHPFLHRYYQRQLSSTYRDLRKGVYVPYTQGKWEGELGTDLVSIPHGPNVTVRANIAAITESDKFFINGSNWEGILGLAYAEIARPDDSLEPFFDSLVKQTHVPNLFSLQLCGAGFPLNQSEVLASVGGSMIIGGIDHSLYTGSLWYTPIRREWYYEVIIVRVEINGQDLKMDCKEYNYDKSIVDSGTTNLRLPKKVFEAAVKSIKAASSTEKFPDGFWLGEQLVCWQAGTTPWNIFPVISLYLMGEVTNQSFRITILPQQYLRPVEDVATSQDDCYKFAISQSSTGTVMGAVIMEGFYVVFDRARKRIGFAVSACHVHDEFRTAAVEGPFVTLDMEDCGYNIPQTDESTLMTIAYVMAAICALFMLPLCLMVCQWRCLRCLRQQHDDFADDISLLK

Usually IC50 stands for the concentration needed to halve the response being measured. As for `CC1(C)OCC(N)=N[C@](C)(c2cc(Nc3cncc(C(F)(F)F)c3)ccc2F)C1(F)F`, the IC50 is 1.9 µM in assay [1] and 3.89 µM in assay [2].
